What is called IC50 is the concentration at which inhibition is half-maximal. In general, melting point refers to the temperature of the solid-liquid transition.

Like-named read-outs stand apart in the source and are kept apart here.

Our source for the IC50, HCR and melting point values is patent publication US7989451B2, “Tricyclic 1,2,4-triazine oxides and compositions for therapeutic use in cancer treatments” (Auckland Uniservices Limited, priority 2005, dated 2011).

The test system of series [1] is human cervical carcinoma SiHa. The series is described as follows: Proliferation assay (IC50) under aerobic and hypoxic conditions, SiHa. Format: cell-based. As to conditions: for IC50: Homo sapiens, 4 h drug exposure, sulforhodamine B; for HCR: hypoxic cytotoxicity ratio = IC50 aerobic/IC50 hypoxic. The protocol: (§1) Compounds representative of the invention were evaluated under both aerobic and hypoxic conditions in a proliferation assay (IC50), using two cell lines: human colon carcinoma HT29, and human cervical carcinoma SiHa (Table 1).
(§2) Drug exposures were performed in 96-well plates (Nunc) either using a 37 DC humidified incubator (20% O2, 5% CO2) or in the incubator compartment (37° C.) of an anaerobic chamber (Shell Lab) where palladium catalyst scrubbed gas (90% N2, 5% H2, 5% CO2) ensures severe anoxia (<0.001% O2). For each experiment, compounds were simultaneously tested under both oxic and hypoxic conditions and included TPZ as an internal control. An 8-methyl-5-nitroquinoline derivative, SN 24349, known to require very low oxygen concentrations for bioactivation (Siim et al., Br. J. Cancer 1994, 70, 596-603) was used to confirm that strict hypoxia was present during the experiment. […] Cell cultures were grown in αMEM (Gibco) containing 5% heat inactivated FCS and maintained in exponential growth phase. For each individual experiment an appropriate number of cells were seeded (HT29=1100; SiHa=1500) into wells in αMEM+10% FCS+10 mM added glucose+100 μM 2′-deoxycytidine (2′dCyd), and allowed to attach for 2-3 h. High glucose (final concentration 17 mM) and the presence of 2′-dCyd minimize hypoxia-induced cell cycle arrest. Cultures were then exposed to drugs, using 3-fold serial dilutions in duplicate, for a further 4 h. Subsequently cells were washed free of compound using complete media (without glucose/2′-dCyd) and allowed to grow for 5 (oxic) or 6 (anoxic) days. Plates were stained with sulforhodamine B as described previously (Wilson et al., J. Med. Chem. 1989, 32, 31-38) and IC50 values determined.
(§3) HCR=Hypoxic cytotoxicity ratio is defined as the ratio of IC50 values under aerobic and hypoxic conditions (IC50 aerobic/IC50 hypoxic).

Series [2] has as its system human colon carcinoma HT29. Nature of the series: Proliferation assay (IC50) under aerobic and hypoxic conditions, HT29. The format is cell-based. As to conditions: for IC50: Homo sapiens, 4 h drug exposure, sulforhodamine B; for HCR: hypoxic cytotoxicity ratio = IC50 aerobic/IC50 hypoxic. The protocol: as §1, §2, §3
[3] abbreviates: hypoxic (anaerobic chamber, <0.001% O2), then 6 days growth, read-out: IC50 (μM) hypoxic.
Where [4] appears, read: oxic (20% O2), then 5 days growth, read-out: IC50 (μM) oxic.
[5] abbreviates: HT-29, hypoxic (anaerobic chamber, <0.001% O2), then 6 days growth, read-out: IC50 (μM) hypoxic.
Setting [6] is: HT-29, oxic (20% O2), then 5 days growth, read-out: IC50 (μM) oxic.

Compound `COCCN(C)CCCNc1n[n+]([O-])c2cc3c(cc2[n+]1[O-])CCC3` [Compound 53, N^1-(1,4-Dioxido-7,8-dihydro-6H-indeno[5,6-e][1,2,4]triazin-3-yl)-N^3-(2-methoxyethyl)-N^3-methyl-1,3-propanediamine] yielded a melting point of 77 to 79 °C. Further, in series [1] (setting [3]), the IC50 was determined as 2.6 ± 0.4 µM. Moreover, the IC50 in series [1] (setting [4]) amounted to 142 ± 6 µM. In addition, the HCR in series [1] stood at 55 ± 6. In addition, the IC50 in series [2] (setting [5]) is 5.4 ± 2.8 µM. Moreover, in series [2] (setting [6]), the IC50 was 261 ± 90 µM. Also, the HCR in series [2] is 81 ± 60.

Consider `COC1CN(CCNc2n[n+]([O-])c3cc4c(cc3[n+]2[O-])CCC4)C1` [Compound 35, N-[2-(3-Methoxy-1-azetidinyl)ethyl]-7,8-dihydro-6H-indeno[5,6-e][1,2,4]triazin-3-amine 1,4-Dioxide], for which the melting point was 152 °C (dec.). Further, the IC50 in series [1] (setting [3]) worked out at 1.8 ± 0.2 µM. In series [1] (setting [4]), the IC50 came out at 108 ± 8 µM. Further, the HCR in series [1] was 61 ± 10. Besides, the IC50 in series [2] (setting [5]) worked out at 3.4 ± 0.1 µM. Further, the IC50 in series [2] (setting [6]) was found to be 165 ± 10 µM. Moreover, in series [2], the HCR amounted to 49 ± 5.

Regarding `CCc1n[n+]([O-])c2cc3c(cc2[n+]1[O-])CCC3` [Compound 68, 3-Ethyl-7,8-dihydro-6H-indeno[5,6-e][1,2,4]triazine 1,4-Dioxide], the melting point is 140 to 142 °C. Also, in series [1] (setting [3]), the IC50 came out at 37 ± 2 µM. The IC50 in series [1] (setting [4]) was 326 ± 7 µM. Moreover, the HCR in series [1] was 8.8 ± 0.2. Moreover, the IC50 in series [2] (setting [5]) turned out to be 48 ± 8 µM. For the same compound, the IC50 in series [2] (setting [6]) amounted to 289 ± 3 µM. The HCR in series [2] was 6.0 ± 0.05.

`COCCN(C)CCNc1n[n+]([O-])c2cc3c(cc2[n+]1[O-])CCC3` [Compound 31, N^1-(1,4-Dioxido-7,8-dihydro-6H-indeno[5,6-e][1,2,4]triazin-3-yl)-N^2-(2-methoxyethyl)-N2-methyl-1,2-ethanediamine] came in with a melting point of 58 to 61 °C. Also, in series [1] (setting [3]), the IC50 amounted to 2.5 ± 0.8 µM. The IC50 in series [1] (setting [4]) came out at 162 ± 48 µM. In addition, the HCR in series [1] is given as 67 ± 2. In addition, the IC50 in series [2] (setting [5]) is 5.9 ± 0.8 µM. Further, the IC50 in series [2] (setting [6]) was 172 ± 100 µM. The HCR in series [2] is reported as 26 ± 12.

In turn, `CN(C)CCNc1n[n+]([O-])c2cc3c(cc2[n+]1[O-])CCCO3` [Compound 242, N^1-(1,4-Dioxido-7,8-dihydro-6H-chromeno[6,7-e][1,2,4]triazin-3-yl)-N^2,N^2-dimethyl-1,2-ethanediamine] had a melting point of 152 to 154 °C. In series [1] (setting [3]), the IC50 came out at 0.31 µM. In series [1] (setting [4]), the IC50 was 25 ± 6 µM. Besides, the HCR in series [1] was 60. For the same compound, the IC50 in series [2] (setting [5]) was determined as 1.5 µM. Moreover, the IC50 in series [2] (setting [6]) amounted to 38 ± 10 µM. Further, the HCR in series [2] is 19.

For the compound `CC1CCCC(C)N1CCNc1n[n+]([O-])c2cc3c(cc2[n+]1[O-])CCC3` (stereo not shown) [Compound 39, N-[2-(2,6-Dimethyl-1-piperidinyl)ethyl]-7,8-dihydro-6H-indeno[5,6-e][1,2,4]triazin-3-amine 1,4-Dioxide], the melting point lay within 170 to 172 °C. In series [1] (setting [3]), the IC50 was found to be 1.1 ± 0.1 µM. In addition, the IC50 in series [1] (setting [4]) was 73 ± 14 µM. The HCR in series [1] was found to be 65 ± 13. Further, the IC50 in series [2] (setting [5]) stood at 2.7 ± 0.2 µM. For the same compound, the IC50 in series [2] (setting [6]) was found to be 117 ± 47 µM. In series [2], the HCR is given as 42 ± 15.

With `CN(C)CCNc1n[n+]([O-])c2cc3c(cc2[n+]1[O-])OCC3` [Compound 208, N^1-(1,4-Dioxido-7,8-dihydrofuro[2,3-g][1,2,4]benzotriazin-3-yl)-N^2,N^2-dimethyl-1,2-ethanediamine], the melting point was 186 to 189 °C. Further, in series [1] (setting [3]), the IC50 came out at 1.9 ± 0.2 µM. Moreover, the IC50 in series [1] (setting [4]) was found to be 176 ± 70 µM. The HCR in series [1] was determined as 128 ± 3. In addition, the IC50 in series [2] (setting [5]) was determined as 5.2 ± 0.3 µM. The IC50 in series [2] (setting [6]) came out at 258 ± 207 µM. Also, the HCR in series [2] came to 46 ± 36.

`CC1Cc2cc3c(cc2C1)[n+]([O-])c(NCCN(C)C)n[n+]3[O-]` (stereo not shown) [Compound 97, N^1,N^1-Dimethyl-N^2-(7-methyl-1,4-dioxido-7,8-dihydro-6H-indeno[5,6-e][1,2,4]triazin-3-yl)-1,2-ethanediamine] yielded a melting point of 149 to 151 °C. The IC50 in series [1] (setting [3]) is 1.4 ± 0.3 µM. In addition, the IC50 in series [1] (setting [4]) is 123 ± 17 µM. Moreover, the HCR in series [1] worked out at 97 ± 33. For the same compound, in series [2] (setting [5]), the half-maximal inhibitory concentration (IC50) was determined as 3.5 ± 0.4 µM. Moreover, the IC50 in series [2] (setting [6]) came out at 185 ± 27 µM. In addition, the HCR in series [2] was 54 ± 14.

In turn, `CN(C)CCNc1n[n+]([O-])c2cc3c(cc2[n+]1[O-])CCCCC3` [Compound 189, N^1-(1,4-Dioxido-7,8,9,10-tetrahydro-6H-cyclohepta[g][1,2,4]benzotriazin-3-yl)-N^2,N^2-dimethyl-1,2-ethanediamine] showed a melting point of 131 to 133 °C. For the same compound, in series [1] (setting [3]), the IC50 amounted to 1.2 ± 0.1 µM. In addition, in series [1] (setting [4]), the IC50 is 99 ± 32 µM. In series [1], the HCR is reported as 88 ± 32. Also, the IC50 in series [2] (setting [5]) was determined as 5.2 ± 0.9 µM. Moreover, the IC50 in series [2] (setting [6]) worked out at 250 ± 119 µM. Besides, the HCR in series [2] came to 54 ± 32.

With `Nc1n[n+]([O-])c2cc3c(cc2[n+]1[O-])OCC3` [Compound 205, 7,8-Dihydrofuro[2,3-g][1,2,4]benzotriazin-3-amine 1,4-Dioxide], the melting point is > 300 °C (dec.). For the same compound, the IC50 in series [1] (setting [3]) was 23 µM. Further, in series [1] (setting [4]), the IC50 is > 500 µM. Further, in series [2] (setting [5]), the IC50 worked out at 117 µM. In series [2] (setting [6]), the IC50 is 495 µM. The HCR in series [2] was found to be 4.

`[O-][n+]1nc(NCCCN2CCOCC2)nc2cc3c(cc21)OCCC3` [Compound 243, N-[3-(4-Morpholinyl)propyl]-7,8-dihydro-6H-chromeno[6,7-e][1,2,4]triazin-3-amine 1-Oxide] registered a melting point of 151 to 152 °C.

In the case of `CC1Cc2cc3nc(NCCN(C)C)n[n+]([O-])c3cc2C1` (stereo not shown) [Compound 96, N^1,N^1-Dimethyl-N^2-(7-methyl-1 oxido-7,8-dihydro-6H-indeno[5,6-e][1,2,4]triazin-3-yl)-1,2-ethanediamine], the melting point was in the range of 119 to 121 °C.

`COCCN(C)CCCNc1nc2cc3c(cc2[n+]([O-])n1)CCC3` [Compound 52, N^1-(2-Methoxyethyl)-N^1-methyl-N^3-(1-oxido-7,8-dihydro-6H-indeno[5,6-e][1,2,4]triazin-3-yl)-1,3-propanediamine]: the melting point fell in the range of 59 to 61 °C.

The compound `CCN(CC)CCNc1nc2ccc3c(c2[n+]([O-])n1)CCC3` [Compound 8, N^1,N^1-Diethyl-N^2-(1-oxido-8,9-dihydro-7H-indeno[5,4-e][1,2,4]triazin-3-yl)-1,2-ethanediamine] returned a melting point of 126 to 130 °C.

In the case of `CN(C)CCNc1nc2cc3c(cc2[n+]([O-])n1)CCC3` [Compound 22, N^1,N^1-Dimethyl-N^2-(1-oxido-7,8-dihydro-6H-indeno[5,6-e][1,2,4]triazin-3-yl)-1,2-ethanediamine], the melting point was in the range of 122 to 124 °C.

With `CN(C)CCNc1nc2ccc3c(c2[n+]([O-])n1)CCCC3` [Compound 172, N^1,N^1-Dimethyl-N^2-(1-oxido-7,8,9,10-tetrahydronaphtho[2,1-e][1,2,4]triazin-3-yl)-1,2-ethanediamine], the melting point was in the range of 151 to 153 °C.

In turn, `CN(C)CCNc1nc2cc3c(cc2[n+]([O-])n1)OCCC3` [Compound 241, N^1,N^1-Dimethyl-N^2-(1-oxido-7,8-dihydro-6H-chromeno[6,7-e][1,2,4]triazin-3-yl)-1,2-ethanediamine] had a melting point of 150 to 152 °C.
